# Assay results published in PubChem BioAssay (NCI).
#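 How tested: cells in 96-well plates exposed to compound for 48 hours at five concentrations. GI50 = concentration required for 50% inhibition of growth. At the TGI there is no net growth.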
# How the values were obtained:
# Assay in all cases: NCI anticancer screen, dose series, 48 h
# COLO 205 colon = test system: COLO 205 colon
# EKVX NSCLC = test system: EKVX NSCLC
# MCF7 breast = test system: MCF7 breast
# MDA-MB-435 = test system: MDA-MB-435
# OVCAR-3 ovarian = test system: OVCAR-3 ovarian
# SW-620 colon = test system: SW-620 colon
# A498 renal = test system: A498 renal
# ACHN renal = test system: ACHN renal
# BT-549 breast = test system: BT-549 breast
# HCC-2998 colon = test system: HCC-2998 colon
# LOX IMVI melanoma = test system: LOX IMVI melanoma
# M14 melanoma = test system: M14 melanoma
# MDA-N = test system: MDA-N
# UACC-62 melanoma = test system: UACC-62 melanoma
SMILES,GI50 (COLO 205 colon) [µM],TGI (COLO 205 colon) [µM],GI50 (EKVX NSCLC) [µM],TGI (EKVX NSCLC) [µM],GI50 (MCF7 breast) [µM],TGI (MCF7 breast) [µM],GI50 (MDA-MB-435) [µM],TGI (MDA-MB-435) [µM],GI50 (OVCAR-3 ovarian) [µM],TGI (OVCAR-3 ovarian) [µM],GI50 (SW-620 colon) [µM],TGI (SW-620 colon) [µM],TGI (A498 renal) [µM],TGI (ACHN renal) [µM],TGI (BT-549 breast) [µM],TGI (HCC-2998 colon) [µM],TGI (LOX IMVI melanoma) [µM],TGI (M14 melanoma) [µM],TGI (MDA-N) [µM],TGI (UACC-62 melanoma) [µM]
C=C(C)[C@@H]1CC[C@]2(C(=O)O)CC[C@]3(C)[C@H](CC[C@@H]4[C@@]5(C)C/C(=C/c6ccco6)C(=O)C(C)(C)[C@@H]5CC[C@]43C)[C@@H]12,2.15,4.38,2.73,> 100,2.62,10.7,3.55,> 100,1.72,3.58,2.52,6.89,–,–,–,–,–,–,–,–
CC(C)CC(N)C(=O)NC(CNC(CCC(N)=O)C(=O)NC(CC(C)C)C(=O)NC(CC(C)C)C(=O)O)Cc1ccc2ccccc2c1 (stereo unspecified),–,> 10,–,> 10,–,> 10,–,> 10,–,> 10,–,> 10,> 10,> 10,> 10,> 10,> 10,> 10,> 10,> 10
CN(C)CCC(=O)[C@@]1(O)CC[C@H]2[C@@H]3CC=C4C[C@@H](O)CC[C@]4(C)[C@H]3CC[C@@]21C,–,32.9,–,42.6,–,16.8,–,45.5,–,29.7,–,50.2,29.7,29.5,32.8,60,28.7,34.2,34.5,32.2
CCCCCCCCCCCCCCCCCCN(C)CC(COC)OP(=O)([O-])OCC[N+](C)(C)C (stereo unspecified),–,2.6,–,28.1,–,14.8,–,17.4,–,11.2,–,15.6,14,15.6,6.75,3.07,20.2,15,15.3,14.9
CC(=O)NC1C(OCc2ccccc2)OC(CO)C(O)C1OCC(=O)NC(C(=O)NC(CCC(=O)NCCCCCC(=O)Nc1ccc2c(c1)CN1C(=O)c3ccccc3C1=N2)C(N)=O)C(C)C (stereo unspecified),–,> 100,–,> 100,–,56.7,–,> 100,–,> 100,–,> 100,73.7,> 100,48.1,> 100,> 100,> 100,> 100,40.9
C/C=C\C1OC1(C)c1cc(=O)c2c(C)cc3c(c2o1)C(=O)c1c(O)c(C2CC(C)(N(C)C)C(OC(C)=O)C(C)O2)cc(C2CC(N(C)C)C(O)C(C)O2)c1C3=O (stereo unspecified),–,0.00901,–,0.0224,–,0.0401,–,0.0103,–,0.0365,–,0.0369,0.0215,0.00575,0.0221,0.00646,0.00485,0.00653,0.00857,0.00504
CC(C)N(CC(=O)O)CC(=O)O,–,> 100,–,> 100,–,> 100,–,> 100,–,> 100,–,> 100,> 100,> 100,> 100,> 100,> 100,> 100,> 100,> 100
